Patent US10323036B2 (Nimbus Lakshmi, Inc., priority 2016, dated 2019)
Like-named read-outs stand apart in the source and are kept apart here.

Target: human TYK2 (JH2domain-pseudokinase) (Homo sapiens (Human), UniProt P29597)
Experiment: TYK2 JH2 Domain Binding Assay (KINOMEscan)
Conditions: read-out: JH2 Kd
[1] = Table 5, Tyk2 JH2 Domain Binding Assay

Sequence of human TYK2 (JH2domain-pseudokinase) (P29597 556-888): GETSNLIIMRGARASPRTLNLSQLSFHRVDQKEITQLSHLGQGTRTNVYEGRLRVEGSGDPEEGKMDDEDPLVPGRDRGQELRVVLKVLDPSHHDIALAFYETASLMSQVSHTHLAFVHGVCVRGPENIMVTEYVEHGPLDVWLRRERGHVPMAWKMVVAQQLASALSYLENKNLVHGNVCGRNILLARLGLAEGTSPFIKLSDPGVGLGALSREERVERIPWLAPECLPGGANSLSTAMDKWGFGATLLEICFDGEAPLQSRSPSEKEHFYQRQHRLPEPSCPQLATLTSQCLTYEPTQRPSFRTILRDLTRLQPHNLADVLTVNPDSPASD

SMILES | Kd (Table 4, JH2 binding assay) [pM] | Kd [1] [pM]
CN(c1cc(C(F)(F)F)ccc1Nc1cc(NC(=O)C2CC2)nc2[nH]n(C)c(=O)c12)S(C)(=O)=O [Compound I-235, N-(2-methyl-4-((2-(N-methylmethylsulfonamido)-4-(trifluoromethyl)phenyl)amino)-3-oxo-2,3-dihydro-1H-pyrazolo[3,4-b]pyridin-6-yl)cyclopropanecarboxamide] | 100 to 500 | 
COCc1ccnc(Nc2cc(Nc3cccc(C#N)c3OC)c3c(=O)n(C)[nH]c3n2)c1 [Compound I-35] | > 10000 | 
COc1c(Cl)cccc1Nc1cc(Nc2ccc(C#N)cn2)nc2[nH]n(C)c(=O)c12 [Compound I-98, 6-((4-((3-chloro-2-methoxyphenyl)amino)-2-methyl-3-oxo-2,3-dihydro-1H-pyrazolo[3,4-b]pyridin-6-yl)amino)nicotinonitrile] | 500 to 1000 | 
COc1c(Nc2cc(Nc3cc(C)c(F)cn3)nc3[nH]n(C)c(=O)c23)cccc1-c1ccn(C)n1 [Compound I-120, 6-((5-fluoro-4-methylpyridin-2-yl)amino)-4-((2-methoxy-3-(1-methyl-1H-pyrazol-3-yl)phenyl)amino)-2-methyl-1,2-dihydro-3H-pyrazolo[3,4-b]pyridin-3-one] | 1000 to 10000 | 
Cn1[nH]c2nc(Nc3cccc(C(F)(F)F)n3)cc(Nc3ccccc3S(C)(=O)=O)c2c1=O [Compound I-113, 2-methyl-4-((2-(methylsulfonyl)phenyl)amino)-6-((6-(trifluoromethyl)pyridin-2-yl)amino)-1,2-dihydro-3H-pyrazolo[3,4-b]pyridin-3-one] | 100 to 500 | 
COc1c(Cl)cccc1Nc1cc(Nc2cc3n(n2)CCCC3)nc2[nH]n(C)c(=O)c12 [Compound I-222, 4-((3-chloro-2-methoxyphenyl)amino)-2-methyl-6-((4,5,6,7-tetrahydropyrazolo[1,5-a]pyridin-2-yl)amino)-1,2-dihydro-3H-pyrazolo[3,4-b]pyridin-3-one] | 1000 to 10000 | 
Cn1[nH]c2nc(Nc3cccc(C#N)n3)cc(Nc3ccc(Cl)cc3S(C)(=O)=O)c2c1=O [Compound I-203, 6-((4-((4-chloro-2-(methylsulfonyl)phenyl)amino)-2-methyl-3-oxo-2,3-dihydro-1H-pyrazolo[3,4-b]pyridin-6-yl)amino)picolinonitrile] | 500 to 1000 | 
COc1c(Nc2cc(Nc3cc(C)c(F)cn3)nc3[nH]n(C)c(=O)c23)cccc1-c1cnc[nH]1 [Compound I-133] | 100 to 500 | 
COc1cc(C(=O)N2CCCC2)ccc1Nc1cc(NC(=O)C2CC2)nc2[nH]n(C)c(=O)c12 [Compound I-70, N-(4-((2-methoxy-4-(pyrrolidine-1-carbonyl)phenyl)amino)-2-methyl-3-oxo-2,3-dihydro-1H-pyrazolo[3,4-b]pyridin-6-yl)cyclopropanecarboxamide] | 100 to 500 | 
COc1c(Cl)cccc1Nc1cc(Nc2ccc(C)c(C#N)n2)nc2[nH]n(C)c(=O)c12 [Compound I-132, 6-((4-((3-chloro-2-methoxyphenyl)amino)-2-methyl-3-oxo-2,3-dihydro-1H-pyrazolo[3,4-b]pyridin-6-yl)amino)-3-methylpicolinonitrile] | 100 to 500 | 
COc1c(Nc2cc(Nc3cc(C)c(F)cn3)nc3[nH]n(C)c(=O)c23)cccc1-c1nnn(C)n1 [Compound I-8, 6-((5-fluoro-4-methylpyridin-2-yl)amino)-4-((2-methoxy-3-(2-methyl-2H-tetrazol-5-yl)phenyl)amino)-2-methyl-1,2-dihydro-3H-pyrazolo[3,4-b]pyridin-3-one] | < 100 | 
COc1c(F)cccc1Nc1cc(Nc2ccc(C)cn2)nc2[nH]n(C)c(=O)c12 [Compound I-84, 4-((3-fluoro-2-methoxyphenyl)amino)-2-methyl-6-((5-methylpyridin-2-yl)amino)-1,2-dihydro-3H-pyrazolo[3,4-b]pyridin-3-one] | 1000 to 10000 | 
COc1c(Nc2cc(Nc3cccc(C#N)n3)nc3[nH]n(C)c(=O)c23)cccc1-c1ncn(C)n1 [Compound I-30, 6-((4-((2-methoxy-3-(1-methyl-1H-1,2,4-triazol-3-yl)phenyl)amino)-2-methyl-3-oxo-2,3-dihydro-1H-pyrazolo[3,4-b]pyridin-6-yl)amino)picolinonitrile] | > 10000 | 
COCc1ccc(Nc2cc(NC(=O)C3CC3)nc3[nH]n(C)c(=O)c23)c(N(C)S(C)(=O)=O)c1 [Compound I-218] | < 100 | 
COc1c(C#N)cccc1Nc1cc(NC(=O)C2CC2)nc2[nH]n(C)c(=O)c12 [Compound I-33] | > 10000 | 
COc1c(F)cccc1Nc1cc(Nc2cccc(C(F)(F)F)n2)nc2[nH]n(C)c(=O)c12 [Compound I-86, 4-((3-fluoro-2-methoxyphenyl)amino)-2-methyl-6-((6-(trifluoromethyl)pyridin-2-yl)amino)-1,2-dihydro-3H-pyrazolo[3,4-b]pyridin-3-one] | 1000 to 10000 | 
COc1c(Cl)cccc1Nc1cc(NC(=O)C2CC2)nc2[nH]n(C)c(=O)c12 [Compound I-49, N-(4-((3-chloro-2-methoxyphenyl)amino)-2-methyl-3-oxo-2,3-dihydro-1H-pyrazolo[3,4-b]pyridin-6-yl)cyclopropanecarboxamide] | 500 to 1000 | 
COc1c(Nc2cc(NC(=O)C3CC3)nc3[nH]n(C)c(=O)c23)cccc1-c1nc(C)nn1C [Compound I-46, N-(4-((3-(1,3-dimethyl-1H-1,2,4-triazol-5-yl)-2-methoxyphenyl)amino)-2-methyl-3-oxo-2,3-dihydro-1H-pyrazolo[3,4-b]pyridin-6-yl)cyclopropanecarboxamide] | 500 to 1000 | 
COCc1ccnc(Nc2cc(Nc3cccc(-c4ncn(C)n4)c3OC)c3c(=O)n(C)[nH]c3n2)c1 [Compound I-15, 4-((2-methoxy-3-(1-methyl-1H-1,2,4-triazol-3-yl)phenyl)amino)-6-((4-(methoxymethyl)pyridin-2-yl)amino)-2-methyl-1,2-dihydro-3H-pyrazolo[3,4-b]pyridin-3-one] | 100 to 500 | 
CCn1cc(-c2cccc(-c3nnn(C)n3)c2OC)c2cc(NC(=O)C3CC3)ncc21 [XVI-6, N-(1-ethyl-3-(2-methoxy-3-(2-methyl-2H-tetrazol-5-yl)phenyl)-1H-pyrrolo[2,3-c]pyridin-5-yl)cyclopropanecarboxamide] |  | 10000 to 100000
COc1c(Nc2cc(Nc3cccc(C#N)n3)ncc2-c2nnc(CO)o2)cccc1-c1ncn(C)n1 [VIII-13, 6-((5-(5-(hydroxymethyl)-1,3,4-oxadiazol-2-yl)-4-((2-methoxy-3-(1-methyl-1H-1,2,4-triazol-3-yl)phenyl)amino)pyridin-2-yl)amino)picolinonitrile] |  | 100 to 1000
Cn1[nH]c2nc(Nc3cccc(C#N)n3)cc(Nc3ccccc3S(C)(=O)=O)c2c1=O [Compound I-112, 6-((2-methyl-4-((2-(methylsulfonyl)phenyl)amino)-3-oxo-2,3-dihydro-1H-pyrazolo[3,4-b]pyridin-6-yl)amino)picolinonitrile] | < 100 | 
COc1c(C#N)cccc1Nc1cc(Nc2ccc(C)cn2)nc2[nH]n(C)c(=O)c12 [Compound I-34] | > 10000 | 
COc1c(F)cccc1Nc1cc(Nc2ccc(N3CCCC3)cn2)nc2[nH]n(C)c(=O)c12 [Compound I-90, 4-((3-fluoro-2-methoxyphenyl)amino)-2-methyl-6-((5-(pyrrolidin-1-yl)pyridin-2-yl)amino)-1,2-dihydro-3H-pyrazolo[3,4-b]pyridin-3-one] | > 10000 | 
